Results published in patent publication US20050113450A1, “Antibacterial agents” (priority 2002, published 2005).
≈ marks a conversion by molar mass, not a printed value.

System: SA 9218
Experiment: MIC by standard agar dilution method
Format: cell-based
Details: Mueller Hinton agar, 10^4 to 10^5 cells per spot, incubated overnight at 35° C., lowest concentration that inhibits visible growth
How it was run: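 Agar dilution: two-fold compound dilutions mixed into molten Mueller Hinton agar, spots of ~10^4–10^5 cells from 0.5 McFarland suspension diluted 1:20 in TSB. Incubated overnight at 35 °C; MIC is lowest concentration inhibiting visible growth.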

MIC [µg/mL]	SA 9218 MIC [µg/mL]	SMILES
1 (≈ 2.8 µM)		N#Cc1ccc(NC(=O)c2cccc(Nc3ccccc3)c2)c(C(=O)O)c1 [PHA-610938, 2-[(3-Anilinobenzoyl)amino]-5-cyanobenzoic acid]
> 128		O=C(Nc1ccc(-c2ccc(C(F)(F)F)cc2)cc1C(=O)O)c1cccc(S(=O)(=O)N2CCOCC2)c1 [PHA-610940]
> 128		COc1ccc(-c2ccc(NC(=O)c3cccc(S(=O)(=O)N4CCOCC4)c3)c(C(=O)O)c2)cc1 [PHA-610941]
> 128		O=C(Nc1ccc(-c2ccccc2)cc1C(=O)O)c1cccc(S(=O)(=O)N2CCOCC2)c1 [PHA-610942]
1 (≈ 2.09 µM)		CN(c1ccc(Cl)cc1)S(=O)(=O)c1cccc(C(=O)Nc2ccc(Cl)cc2C(=O)O)c1 [PHA-615551]
0.5 (≈ 1.12 µM)		N#Cc1ccc(NC(=O)c2cccc(S(=O)(=O)n3cnc4ccccc43)c2)c(C(=O)O)c1 [PHA-630330]
2 (≈ 4 µM)		O=C(Nc1ccc(Br)cc1C(=O)O)c1cccc(S(=O)(=O)n2ccc3cccnc32)c1 [PHA-630331]
0.5 (≈ 1.29 µM)		N#Cc1ccc(NC(=O)c2cccc(SCc3ccccc3)c2)c(C(=O)O)c1 [PHA-630368]
> 128		N#Cc1ccc(NC(=O)c2cccc(S(=O)(=O)C3CCCC3)c2)c(C(=O)O)c1 [PHA-630426]
4 (≈ 10.5 µM)		N#Cc1ccc(NC(=O)c2cccc([S+]([O-])C3CCCC3)c2)c(C(=O)O)c1 (centres unmarked) [PHA-630427]
4 (≈ 10.2 µM)		CC(C)(C)N1C(=O)c2ccc(C(=O)Nc3ccc(C#N)cc3C(=O)O)cc2C1=O [PHA-630726]
4 (≈ 9.67 µM)		N#Cc1ccc(NC(=O)c2cccc(CS(=O)(=O)N3CCCC3)c2)c(C(=O)O)c1 [PHA-630852, 5-cyano-2-({3-[(1-pyrrolidinylsulfonyl)methyl]benzoyl}amino)benzoic acid]
0.25 (≈ 0.475 µM)		N#Cc1ccc(NC(=O)c2cc(Br)cc(S(=O)(=O)N3CCc4ccccc43)c2)c(C(=O)O)c1 [PHA-630965]
0.25 (≈ 0.456 µM)		CN(c1ccc(Cl)cc1)S(=O)(=O)c1cc(Br)cc(C(=O)Nc2ccc(C#N)cc2C(=O)O)c1 [PHA-630966]
4 (≈ 8.98 µM)		CC(C)(C)N1C(=O)c2ccc(C(=O)Nc3ccc(Br)cc3C(=O)O)cc2C1=O [PHA-630989]
0.25 (≈ 0.415 µM)		CN(c1ccc(Cl)cc1)S(=O)(=O)c1cc(Br)cc(C(=O)Nc2ccc(Br)cc2C(=O)O)c1 [PHA-631082]
64 (≈ 139 µM)		N#Cc1ccc(NC(=O)c2cccc(S(=O)(=O)NC3CCc4ccccc43)c2)c(C(=O)O)c1 (centres unmarked) [PHA-656807]
64 (≈ 133 µM)		N#Cc1ccc(NC(=O)c2cccc(S(=O)(=O)N(CCO)Cc3ccccc3)c2)c(C(=O)O)c1 [PHA-656808]
64 (≈ 133 µM)		CN(CC(O)c1ccccc1)S(=O)(=O)c1ccc(C(=O)Nc2ccc(C#N)cc2C(=O)O)cc1 (centres unmarked) [PHA-656809]
2 (≈ 3.73 µM)		N#Cc1ccc(NC(=O)c2cccc(S(=O)(=O)N3CCN(c4ccc([N+](=O)[O-])cc4)CC3)c2)c(C(=O)O)c1 [PHA-656810]
32 (≈ 69.9 µM)		CC(C)CN(CC(C)C)S(=O)(=O)c1ccc(C(=O)Nc2ccc(C#N)cc2C(=O)O)cc1 [PHA-656811]
> 128		O=C(Nc1ccc(-c2ccc(Cl)cc2)cc1C(=O)O)c1cccc(S(=O)(=O)N2CCOCC2)c1 [PHA-656820]
16 (≈ 35.9 µM)		CCCCN(CCO)S(=O)(=O)c1cccc(C(=O)Nc2ccc(C#N)cc2C(=O)O)c1 [PHA-656859]
8 (≈ 17.3 µM)		N#Cc1ccc(NC(=O)c2cccc(S(=O)(=O)Nc3ccc4c(c3)CCC4)c2)c(C(=O)O)c1 [PHA-656860]
32 (≈ 64.8 µM)		CN(CCC(O)c1ccccc1)S(=O)(=O)c1ccc(C(=O)Nc2ccc(C#N)cc2C(=O)O)cc1 (centres unmarked) [PHA-656861]
32 (≈ 66.7 µM)		N#Cc1ccc(NC(=O)c2ccc(S(=O)(=O)N(CCO)Cc3ccccc3)cc2)c(C(=O)O)c1 [PHA-656862]

MIC [µg/mL]	SA 9218 MIC [µg/mL]	SMILES
8 (≈ 18.6 µM)		N#Cc1ccc(NC(=O)c2cccc(S(=O)(=O)N3CCCC3CO)c2)c(C(=O)O)c1 (centres unmarked) [PHA-656863]
> 128		N#Cc1ccc(NC(=O)c2ccc(S(=O)(=O)NC3CCc4ccccc43)cc2)c(C(=O)O)c1 (centres unmarked) [PHA-656866]
64 (≈ 144 µM)		CCCCN(CCO)S(=O)(=O)c1ccc(C(=O)Nc2ccc(C#N)cc2C(=O)O)cc1 [PHA-656867]
> 128		N#Cc1ccc(NC(=O)c2ccc(S(=O)(=O)N3CCCC3CO)cc2)c(C(=O)O)c1 (centres unmarked) [PHA-656868]
8 (≈ 17.6 µM)		C=CCN(C1CCCC1)S(=O)(=O)c1cccc(C(=O)Nc2ccc(C#N)cc2C(=O)O)c1 [PHA-656870]
128 (≈ 310 µM)		CC1CCCN1S(=O)(=O)c1ccc(C(=O)Nc2ccc(C#N)cc2C(=O)O)cc1 (centres unmarked) [PHA-656871]
> 128		CN(CCc1ccccn1)S(=O)(=O)c1cccc(C(=O)Nc2ccc(C#N)cc2C(=O)O)c1 [PHA-656872]
16 (≈ 37.1 µM)		O=C(Nc1ccc(Cl)cc1C(=O)O)c1cccc(C(=O)c2ccc3ccccc3n2)c1 [PHA-656880]
16 (≈ 39 µM)		O=C(COc1ccccc1)c1cccc(C(=O)Nc2ccc(Cl)cc2C(=O)O)c1 [PHA-656882]
16 (≈ 36.5 µM)		COC(=O)c1cccc(C(=O)c2ccc(C(=O)Nc3ccc(Cl)cc3C(=O)O)cc2)c1 [PHA-656883]
16 (≈ 46.3 µM)		CC(C)C(=O)c1cccc(C(=O)Nc2ccc(Cl)cc2C(=O)O)c1 [PHA-656884]
16 (≈ 39 µM)		COc1ccccc1C(=O)c1cccc(C(=O)Nc2ccc(Cl)cc2C(=O)O)c1 [PHA-656885]
16 (≈ 36.5 µM)		COC(=O)c1cccc(C(=O)c2cccc(C(=O)Nc3ccc(Cl)cc3C(=O)O)c2)c1 [PHA-656886]
8 (≈ 20.7 µM)		O=C(Nc1ccc(Cl)cc1C(=O)O)c1cccc(C(=O)c2cccs2)c1 [PHA-656887]
16 (≈ 44.7 µM)		O=C(Nc1ccc(Cl)cc1C(=O)O)c1cccc(C(=O)C2CCC2)c1 [PHA-656888]
16 (≈ 42.8 µM)		CC(C)(C)CC(=O)c1cccc(C(=O)Nc2ccc(Cl)cc2C(=O)O)c1 [PHA-656889]
16 (≈ 46.5 µM)		O=C(Nc1ccc(Cl)cc1C(=O)O)c1cccc(C(=O)C2CC2)c1 [PHA-656890]
16 (≈ 40 µM)		O=C(CCC1CCCC1)c1cccc(C(=O)Nc2ccc(Cl)cc2C(=O)O)c1 [PHA-656891]
8 (≈ 19.2 µM)		O=C(Nc1ccc(Cl)cc1C(=O)O)c1cccc(C(=O)c2ccc(F)c(F)c2)c1 [PHA-656892]
8 (≈ 19.2 µM)		O=C(Nc1ccc(Cl)cc1C(=O)O)c1cccc(C(=O)c2cc(F)cc(F)c2)c1 [PHA-656893]
16 (≈ 40.6 µM)		Cc1cccc(C(=O)c2cccc(C(=O)Nc3ccc(Cl)cc3C(=O)O)c2)c1 [PHA-656894]
1 (≈ 1.99 µM)		O=C(Nc1ccc(Cl)cc1C(=O)O)c1cc(Br)cc(S(=O)(=O)N2CCOCC2)c1 [PHA-662250]
64 (≈ 169 µM)		N#Cc1ccc(NC(=O)c2cccc(C(=O)N3CCOCC3)c2)c(C(=O)O)c1 [PHA-662412]
1 (≈ 2.32 µM)		N#Cc1ccc(NC(=S)c2cccc(S(=O)(=O)N3CCOCC3)c2)c(C(=O)O)c1 [PHA-662430]
1 (≈ 2.41 µM)		N#Cc1ccc(NC(=S)c2cccc(S(=O)(=O)N3CCCC3)c2)c(C(=O)O)c1 [PHA-662431]
	32	N#Cc1ccc(NC(=O)c2cccc(S(=O)(=O)N3CCOCC3)c2)c(C(=O)O)c1 [PHA-662951]

MIC [µg/mL]	SA 9218 MIC [µg/mL]	SMILES
4 (≈ 8.49 µM)		Cc1cc(C(=O)Nc2ccc(Cl)cc2C(=O)O)cc(S(=O)(=O)N2CCc3ccccc32)c1 [PHA-664658]
32 (≈ 76.5 µM)		O=Cc1ccc(NC(=O)c2cccc(S(=O)(=O)N3CCOCC3)c2)c(C(=O)O)c1 [PHA-666124]
0.5 (≈ 1.11 µM)		CN(c1ccccc1N)S(=O)(=O)c1cccc(C(=O)Nc2ccc(C#N)cc2C(=O)O)c1 [PHA-670083]
> 128		O=C(Nc1ccc(/C=N/O)cc1C(=O)O)c1cccc(S(=O)(=O)N2CCOCC2)c1 [PHA-679756]
> 128		CO/N=C/c1ccc(NC(=O)c2cccc(S(=O)(=O)N3CCOCC3)c2)c(C(=O)O)c1 [PHA-679759]
1 (≈ 1.77 µM)		O=Cc1ccc(NC(=O)c2cc(Br)cc(S(=O)(=O)N3CCc4cc(Cl)ccc43)c2)c(C(=O)O)c1 [PHA-681768]
64 (≈ 125 µM)		CO/N=C/c1ccc(NC(=O)c2cccc(S(=O)(=O)N3CCc4cc(Cl)ccc43)c2)c(C(=O)O)c1 [PHA-682996]
4 (≈ 8 µM)		O=C(Nc1ccc(/C=N/O)cc1C(=O)O)c1cccc(S(=O)(=O)N2CCc3cc(Cl)ccc32)c1 [PHA-686834]
4 (≈ 8.35 µM)		N#Cc1ccc(C2CC2c2cccc(S(=O)(=O)N3CCc4cc(Cl)ccc43)c2)c(C(=O)O)c1 (centres unmarked) [PHA-687511]
128 (≈ 269 µM)		O=C(Nc1ccc(C#CCO)cc1C(=O)O)c1cccc(S(=O)(=O)N2CCc3ccccc32)c1 [PHA-687570]
4 (≈ 8.43 µM)		O=C(O)c1cc(Cl)ccc1/C=C/c1cccc(S(=O)(=O)N2CCc3cc(Cl)ccc32)c1 [PHA-707801]
> 128		CC(=O)c1ccc(CC(=O)c2ccc(S(=O)(=O)N3CCc4cc(Cl)ccc43)cc2)c(C(=O)O)c1 [PHA-708922]
32 (≈ 74 µM)		CC(=O)c1ccc(NC(=O)c2cccc(S(=O)(=O)N3CCOCC3)c2)c(C(=O)O)c1 [PHA-708923]
32 (≈ 72.8 µM)		O=C(Nc1cccc(C(=O)Nc2ccc(Br)cc2C(=O)O)c1)c1ccccc1 [PHA-708976]
> 128		O=C(Nc1ccc(C(=O)Nc2ccc(Br)cc2C(=O)O)cc1)c1ccccc1 [PHA-708977]
32 (≈ 74.6 µM)		O=C(Nc1ccc(Br)cc1C(=O)O)c1cccc(NC(=O)c2ccco2)c1 [PHA-708978]
> 128		O=C(Nc1ccc(Br)cc1C(=O)O)c1ccc(NC(=O)c2ccco2)cc1 [PHA-708979]
16 (≈ 34.8 µM)		O=C(Cc1cccs1)Nc1cccc(C(=O)Nc2ccc(Br)cc2C(=O)O)c1 [PHA-708980]
16 (≈ 33.2 µM)		Cc1cc(C)c(C(=O)Nc2cccc(C(=O)Nc3ccc(Br)cc3C(=O)O)c2)c(C)c1 [PHA-708981]
128 (≈ 266 µM)		Cc1cc(C)c(C(=O)Nc2ccc(C(=O)Nc3ccc(Br)cc3C(=O)O)cc2)c(C)c1 [PHA-708982]
32 (≈ 66.2 µM)		O=C(Nc1cccc(C(=O)Nc2ccc(Br)cc2C(=O)O)c1)c1ccc2c(c1)OCO2 [PHA-708983]
32 (≈ 64.1 µM)		COc1ccc(C(=O)Nc2cccc(C(=O)Nc3ccc(Br)cc3C(=O)O)c2)c(OC)c1 [PHA-708984]
8 (≈ 16.5 µM)		O=C(CSc1ccccc1)Nc1cccc(C(=O)Nc2ccc(Br)cc2C(=O)O)c1 [PHA-708985]
64 (≈ 157 µM)		COCC(=O)Nc1cccc(C(=O)Nc2ccc(Br)cc2C(=O)O)c1 [PHA-708986]
> 128		COCC(=O)Nc1ccc(C(=O)Nc2ccc(Br)cc2C(=O)O)cc1 [PHA-708987]
